Results on eight compounds are retold here after PMC12284848, “Safe and Efficient Intracellular Release of SN38 via Lysosomal-Responsive SN38‑G Loaded Liposomes” (ACS Applied Bio Materials, 2025).

Data set [1] is described as follows: Drug stability: retention in liposomes on dialysis in 0.9% NaCl with 10% FBS at 37 °C. In kind it is physicochemical. Particulars: dialysis 0.9% NaCl with 10% FBS, over 15 days. As to the method:
This stability is consistent with the physicochemical properties of SN38-G and its intraliposomal complexation with calcium, which limits membrane permeability.
We diluted SN38-G liposomes at 1 mg/mL of phospholipids in 2 mL of 0.9% NaCl, complemented with 10% FBS, before transferring to dialysis membrane (Visking Tubing, diameter 15.9 mm, molecular weight 12,000–14,000). We ran the dialysis at 37 °C in the dark against 2 L, to which we added 0.02% sodium azide to prevent bacterial growth, under constant stirring. Samples of 2 μL of liposomes were taken at different intervals and diluted in 248 μL of HPLC mobile phase (70% methanol, […], pH 3), lysed for 10 min at 70 °C, and injected (Volume = 2.5 μL) in the C18 reverse phase HPLC system to analyze the total remaining amount of encapsulated SN38-G.

Data set [2] is described as follows: physchem. Particulars: for logP at 24 h: pH 6, Log P. As to the method:
The log P, defined here by partitioning between 1-octanol and pH 6 buffer (Figure c), was measured to determine compound affinity for organic phases such as the lipid bilayer.
(§1) We added SN38, SN38-G, SN38-G^met, and SN38-G^eth in 10 mM MES pH 6 until it reached saturation and stopped dissolving. Saturated solutions were kept under agitation at room temperature for 24 h and centrifuged at 20,000g for 30 min at 24 °C. Analytical HPLC was then used to quantify the supernatants. The partitioning between 1-octanol and water was determined in 500 μL of 10 mM MES at pH 6 and 500 μL of 1-octanol. […] We allowed equilibration between the 2 phases for 24 h at room temperature under constant shaking. After this, the tubes were centrifuged at 20,000g for 30 min at 24 °C, and samples from each phase were analyzed by analytical HPLC. Using 70% methanol mobile phase conveniently dissolves 1-octanol, ensuring precise estimation of drugs’ quantities.

Data set [3] in a line: physchem. Particulars: for water solubility: 24 h, pH 6; for solubility at 24 h: pH 6, aqueous buffer, thermodynamic from solid, water solubility. As for the experimental part:
Water solubility tests were conducted in a pH 6 buffer (Figure b) to prevent the hydrolysis of the ester bond.
as §1

The nature of data set [4]: Alkaline hydrolysis of SN38-G esters back to SN38-G (10 mM HEPES pH 8, 70 °C, HPLC). In kind it is physicochemical. Particulars: alkaline conditions (10 mM HEPES pH 8), after 1 h. As to the method:
Accordingly, we formed a loadable amphiphilic SN38-G by esterification in excess alcohol at elevated temperatures using a sulfuric acid (H2SO4) catalyst. Esterification was performed in either methanol or ethanol, resulting in a methylester (SN38-G^met) and an ethylester (SN38-G^eth). Within 12 h, over 95% of SN38-G was esterified to SN38-G^met and SN38-G^eth (Figure a). Both esters are expected to have different levels of amphiphilicity due to their respective ester length, which might influence their loading behavior. We then tested the reversibility of the esterification to regenerate hydrophilic SN38-G through alkaline hydrolysis, which is a crucial step to ensure proper retention after loading. The hydrolysis rates of SN38-G^met and SN38-G^eth under alkaline conditions at 70 °C, which simulates the elevated pH compartment of liposomes during loading, were adequate. After 1 h, 96.1% (±2.6) of SN38-G^met and 95.5% (±2.1) of SN38-G^eth were hydrolyzed back to SN38-G (Figure b). The hydrolysis duration aligns with the typical incubation time between drugs and liposomes during loading. […]
Hydrolysis of SN38-G^met and SN38-G^eth was performed in 10 mM HEPES adjusted to pH 8 to simulate the alkaline internal compartment of the liposomes during drug loading. We monitored the reaction at 70 °C and took samples at 0, 5, 30, and 60 min of incubation time. […]

Data set [5] relates to lung adenocarcinoma (CL1-5). Also noted: method as in ref 1 (SI). Particulars: CL1-5-inoculated mice, free prodrug; ref 1 (SI); cited from earlier work.
In data set [6] the test system is MDA-MB-231. Kind of data set: Cellular regeneration of SN38 from SN38-G liposomes, MDA-MB-231. Particulars: 100 μM inhibitor, 2 μM SN38-G liposomes. Type of data set: cell-based.
For data set [7], the system named is MCF-7. Kind of data set: Cellular regeneration of SN38 from SN38-G liposomes, MCF-7. In kind it is cell-based, human. Particulars: 100 μM inhibitor, 2 μM SN38-G liposomes.
Data set [8] concerns MDA-MB-231. Kind of data set: Cell proliferation assay (CCK-8), MDA-MB-231. Type of data set: cell-based. As for the experimental part: Cells were seeded at a density of five thousand cells per well in 96-well plates and left to incubate overnight. […] Inhibition of cell proliferation was determined as 2 ''%[…]^''=absorbanceat450nm(sample)×100/Absorbanceat450nm(control)
The subject of data set [9] is MCF-7. Kind of data set: Cell proliferation assay (CCK-8), MCF-7. In kind it is cell-based, human.
Procedure: Cells were seeded at a density of five thousand cells per well in 96-well plates and left to incubate overnight. Triplicate samples of free SN38, free SN38-G, and SN38-G liposomes were added at various dilutions and incubated for 24 h. CCK-8 stock solution was thawed at 37 °C in a water bath, 10 μL was added to each well, and plates were placed in the incubator for up to 4 h before measuring the absorbance at 450 nm using a microplate reader. Inhibition of cell proliferation was determined as 2 ″%ofinhibitioncomparedtocontrol^″=absorbanceat450nm(sample)×100/Absorbanceat450nm(control)
Sequential Esterification, Hydrolysis, Enzymatic Digestion, and Biological Activity Assessment of SN38-G to SN38. Commercial SN38-G was esterified in methanol or ethanol using sulfuric acid (H₂SO₄) and DMSO, following the procedure detailed in the Methods section under Synthesis of amphiphilic SN38-Gmet and SN38-Geth from SN38-G. The formation of the esters was monitored by analytical HPLC. For analysis, 2 µL of the reaction mixture was diluted in 248 µL of HPLC mobile phase, and 2.5 µL was injected with the fluorescence detector set at an excitation/emission wavelength of 375/430 nm. Hydrolysis of SN38-Gmet and SN38-Geth was carried out at 70 °C in 10 mM HEPES buffer, adjusted to pH 8. Samples were taken at 0, 5, 30, and 60 minutes, diluted in HPLC mobile phase (70% methanol, 25 mM citric acid, pH 3), and incubated at 70 °C for 10 minutes before injection. To generate active SN38, SN38-G was enzymatically cleaved by beta-glucuronidase following pH adjustment to 7 with phosphate buffer. The biological activity of the resulting SN38 was evaluated in an in-vitro cytotoxicity assay using human MCF-7 breast cancer cells, in comparison to commercial SN38. Cells were seeded at 5,000 cells per well in 96-well plates and incubated overnight. Triplicate samples of either commercial SN38 or SN38 generated from SN38-G were added at various dilutions and incubated for 24 hours. Afterward, 10 µL of CCK-8 solution (pre-warmed to 37 °C) was added to each well, and the plates were returned to the incubator for up to 4 hours. Absorbance was then measured at 450 nm using a microplate reader. Cell proliferation inhibition was calculated as: % inhibition = [Abs₄₅₀(sample) / Abs₄₅₀(control)] × 100 .
Cytotoxicity Assay in Cancerous and Non -Cancerous Cell Lines. […]
For the cytotoxicity assay cells were seeded at a density of 5,000 cells per well in 96 -well plates and allowed to adhere overnight. […] Absorbance at 450 nm was measured using a microplate reader. Cell viability was calculated as a percentage of untreated control cells. […]
In data set [10] the test system is ovarian cancer model (OVCAR-3). On the set-up: method as in ref 7 (SI). Particulars: equitoxic dose; ref 7 (SI); cited from earlier work.
For data set [11], the system named is beta-glucuronidase. Kind of data set: Enzymatic digestion of SN38-G to SN38 by beta-glucuronidase. Particulars: 37 °C. Type of data set: biochemical.

Values after ≈ are worked out from the molar mass of the structure shown.

What is called logP is the decadic logarithm of the partition coefficient of the neutral form, usually between octanol and water. What is called solubility is how much of the substance goes into solution per volume. For `CCc1c2c(nc3ccc(O[C@@H]4O[C@H](C(=O)OC)[C@@H](O)[C@H](O)[C@H]4O)cc13)-c1cc3c(c(=O)n1C2)COC(=O)[C@]3(O)CC` [SN38-G^met], the retention within liposomes result in [1] is “rapid clearance”. In addition, the logP at 24 h in [2] amounted to 0.07. In addition, in [3], the water solubility is 3860 µg/mL (≈ 6.63 mM) and the solubility at 24 h was about 3860 µg/mL (≈ 6.63 mM). The “hydrolyzed back to SN38-G” value in data set [4] turned out to be 96.1%.
For the compound “9-aminocamptothecin glucuronide [9AC glucuronide]”, the mice cured entry in [5] is reported as “Up to 85%”.
On to `O=C(O)[C@@H](O)[C@H]1OC(=O)[C@H](O)[C@H]1O` [D-saccharic acid 1,4-lactone], for which the “effect on production of SN38 in cells” value in [6] and in data set [7] was “effectively suppressed” throughout.
In general, IC50 refers to the concentration that inhibits the measured activity by half. Read a high IC50 as weaker potency in that assay. Take `CCc1c2c(nc3ccc(O)cc13)-c1cc3c(c(=O)n1C2)COC(=O)[C@]3(O)CC` [SN38, 7-ethyl-10-hydroxycamptothecin]: in data set [2] (1-octanol vs pH 6 buffer), the “higher affinity for the organic phase” value is on record as 53 fold. This compound also gave a logP at 24 h in data set [2] of 1.73. This compound showed a solubility at 24 h in data set [3] of about 7.45 µg/mL (≈ 0.019 mM). In addition, the half-maximal inhibitory concentration (IC50) in [8] (Homo sapiens, MDA-MB-231, 24 h, CCK-8) was determined as 24 nM; in [9] (Homo sapiens, MCF7, MCF-7, 24 h, CCK-8), 5.82 nM. For the same compound, in [9] (SN38 made by esterification, hydrolysis and beta-glucuronidase digestion of SN38-G, MCF-7, 24 h), the “in vitro cytotoxicity of SN38 regenerated from reformed SN38-G” value was “comparable to that of a commercial SN38 standard”.
With `COc1cccc2c1C(=O)c1c(O)c3c(c(O)c1C2=O)C[C@@](O)(C(=O)CO)C[C@@H]3O[C@H]1C[C@H](N)[C@H](O)[C@H](C)O1` [doxorubicin], in data set [10], the tumor inhibition was 56%.
`CCc1c2c(nc3ccc(OC(=O)N4CCC(N5CCCCC5)CC4)cc13)-c1cc3c(c(=O)n1C2)COC(=O)[C@]3(O)CC` [CPT-11]: the cytotoxicity result in [9] (MCF-7, 24 h, CCK-8) was “low cytotoxicity”.
Take `CCOC(=O)[C@H]1O[C@@H](Oc2ccc3nc4c(c(CC)c3c2)Cn2c-4cc3c(c2=O)COC(=O)[C@]3(O)CC)[C@H](O)[C@@H](O)[C@@H]1O` [SN38-G^eth]: in data set [1], the retention within liposomes entry is given as “rapid clearance”. The lipophilicity (logP) at 24 h in [2] is 0.66. In data set [3], this compound gave a water solubility of 1500 µg/mL (≈ 2.51 mM) and a solubility at 24 h of about 1500 µg/mL (≈ 2.51 mM). In data set [4], the “hydrolyzed back to SN38-G” value came out at 95.5%.
As to `CCc1c2c(nc3ccc(O[C@@H]4O[C@H](C(=O)O)[C@@H](O)[C@H](O)[C@H]4O)cc13)-c1cc3c(c(=O)n1C2)COC(=O)[C@]3(O)CC` [SN38-G, SN38 glucuronide], in data set [1], the retention within liposomes entry is reported as “excellent retention”. In addition, in [2] (1-octanol vs pH 6 buffer), the “higher affinities for the aqueous phase” value is recorded as “over 775 fold”. Further, the logP at 24 h in data set [2] was -2.89. The compound also showed a water solubility in [3] of 62800 µg/mL (≈ 110 mM). In data set [3], the solubility at 24 h is about 59500 µg/mL (≈ 105 mM). The “cleavage by beta-glucuronidase to SN38” value in [11] was “rapidly cleaved”. For the same compound, the “reduction of toxicity versus SN38” value in data set [8] (MDA-MB-231) worked out at 550.5 fold; in [9] (MCF-7), 728.5 fold.
